Measured values as given in ChEMBL document CHEMBL4699572, “Identification of Antifungal Bisphosphocholines from Medicinal Gentiana Species” (2020).
Activity calls are given as the source filed them. The rule behind the calls is not given here.

Key:
Format in all cases: functional
[1] = tested on: Nakaseomyces glabratus; experiment: Antifungal activity against Candida glabrata ATCC 90030 assessed as reduction in microbial growth after 18 to 24 hrs by CLSI based method; settings: time hrs 18-24
[2] = tested on: Candida albicans; experiment: Antifungal activity against Candida albicans ATCC 90028 assessed as reduction in microbial growth after 18 to 24 hrs by CLSI based method; settings: time hrs 18-24
[3] = tested on: Cryptococcus neoformans; experiment: Antifungal activity against Cryptococcus neoformans ATCC 90113 assessed as reduction in microbial growth after 72 hrs by CLSI based method
[4] = tested on: Aspergillus fumigatus; experiment: Antifungal activity against Aspergillus fumigatus ATCC 204305 assessed as reduction in microbial growth after 72 hrs by CLSI based method

C[N+](C)(C)CCOP(=O)([O-])OCCCCCCCCCCCCCCCCCCCCCCOP(=O)([O-])OCC[N+](C)(C)C
MIC [1]: 5 µg/mL | MIC [2]: 10 µg/mL | MIC [3]: 0.63 µg/mL | MIC [4]: 1.25 µg/mL

C[N+](C)(C)CCOP(=O)([O-])OCCCCCCCCCCCCCCCCCCCCCOP(=O)([O-])OCC[N+](C)(C)C
Activity [1]: inactive | Activity [2]: inactive | Activity [3]: inactive | Activity [4]: inactive

C[N+](C)(C)CCOP(=O)([O-])OCCCCCCCCCCCCCCCCCCCCCCCOP(=O)([O-])OCC[N+](C)(C)C
Activity [1]: inactive | Activity [2]: inactive | Activity [3]: inactive | Activity [4]: inactive

C[C@@H]1[C@H](O)[C@@H](C)/C=C/C=C/C=C/C=C/C=C/C=C/C=C/[C@H](O[C@@H]2O[C@H](C)[C@@H](O)[C@H](N)[C@@H]2O)C[C@@H]2O[C@](O)(C[C@@H](O)C[C@@H](O)[C@H](O)CC[C@@H](O)C[C@@H](O)CC(=O)O[C@H]1C)C[C@H](O)[C@H]2C(=O)O [AMPHOTERICIN B]
MIC [3]: 0.63 µg/mL | MIC [4]: 2.5 µg/mL

C[N+](C)(C)CCOP(=O)([O-])OCCCCCCCCCCCCCCCCCCCCCCCCOP(=O)([O-])OCC[N+](C)(C)C
Activity [1]: inactive | Activity [2]: inactive | Activity [3]: inactive | Activity [4]: inactive
